Laboratory results reported in ChEMBL document CHEMBL1201862, “PubChem BioAssay data set” (2004).
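1) Cells in 96-well plates. 2) Compound, 48 h, 5 concentrations. 3) Linear interpolation between surrounding doses. 4) Unreached endpoint = highest concentration. GI50 is the concentration that inhibits growth by half.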 Calls of active or inactive are those of the source. No stated cut-off is given here; in the data, active = GI50 up to about 1.1 µM and inactive = higher.

What was measured:
Assay in all cases: DTP human tumour cell line panel, 48 h
[1] = test system: HCT-15
[2] = test system: RPMI-8226
[3] = test system: SK-OV-3
[4] = test system: CAKI-1
[5] = test system: SNB-19
[6] = test system: HT-29
[7] = test system: SN12C
[8] = test system: HCC 2998
[9] = test system: UO-31
[10] = test system: OVCAR-8
[11] = test system: ACHN
[12] = test system: 786-0
[13] = test system: SW-620
[14] = test system: SK-MEL-2
[15] = test system: OVCAR-4
[16] = test system: NCI-H226
[17] = test system: HL-60
[18] = test system: CCRF-CEM
[19] = test system: OVCAR-3

Row | Compound | GI50 [1] [µM] | GI50 [2] | GI50 [3] | GI50 [4] | GI50 [5] | GI50 [6] | GI50 [7] | GI50 [8] | GI50 [9] | GI50 [10] | GI50 [11] | GI50 [12] | GI50 [13] | GI50 [14] | GI50 [15] | GI50 [16] | GI50 [17] | GI50 [18] | GI50 [19]
1 | Cc1cn(CCCCCOC(=O)NC(CCCNC(N)=O)C(=O)O)c(=O)[nH]c1=O (configuration not stated) | > 100 | > 100 µM (inactive) | > 100 µM (inactive) | > 100 µM (inactive) | > 100 µM (inactive) | > 100 µM (inactive) | > 100 µM (inactive) | > 100 µM (inactive) | > 100 µM (inactive) | > 100 µM (inactive) | > 100 µM (inactive) | > 100 µM (inactive) | > 100 µM (inactive) | > 100 µM (inactive) | > 100 µM (inactive) | > 100 µM (inactive) | > 100 µM (inactive) | > 100 µM (inactive) | > 100 µM (inactive)
2 | COC(=O)C1(c2cc3ccccc3n2S(=O)(=O)c2ccccc2)CC2C=CC1NC2 (configuration not stated) | 1.75 | 0.933 µM (active) | 3.41 µM (inactive) | 1.82 µM (inactive) | 2.2 µM (inactive) | 1.79 µM (inactive) | 2.08 µM (inactive) | 1.98 µM (inactive) | 1.48 µM (inactive) | 1.95 µM (inactive) | 1.84 µM (inactive) | 1.94 µM (inactive) | 2.91 µM (inactive) | 1.77 µM (inactive) | 1.98 µM (inactive) | 8.97 µM (inactive) | 1.94 µM (inactive) | 0.735 µM (active) | 2.29 µM (inactive)
3 | CN1N=C(Nc2ccccc2)Sc2c1cnn(-c1ccccc1)c2=O | > 100 | 93.3 µM (inactive) | > 100 µM (inactive) | – | 96.4 µM (inactive) | > 100 µM (inactive) | > 100 µM (inactive) | > 100 µM (inactive) | 83.2 µM (inactive) | > 100 µM (inactive) | > 100 µM (inactive) | > 100 µM (inactive) | > 100 µM (inactive) | > 100 µM (inactive) | 94.4 µM (inactive) | – | 85.7 µM (inactive) | > 100 µM (inactive) | 28.1 µM (inactive)
4 | CCc1cc2c(Nc3ccccc3)c3c(nc2s1)CCCC3 | 38.8 | 3.71 µM (inactive) | > 100 µM (inactive) | – | > 100 µM (inactive) | – | > 100 µM (inactive) | > 100 µM (inactive) | 3.99 µM (inactive) | > 100 µM (inactive) | 94.2 µM (inactive) | 29.2 µM (inactive) | 80.5 µM (inactive) | > 100 µM (inactive) | 24 µM (inactive) | – | 6.05 µM (inactive) | 20.9 µM (inactive) | 6.56 µM (inactive)
5 | O=C(Nc1cccc(C(F)(F)F)c1)O/N=C(/Cl)CCl | 46.3 | 27 µM (inactive) | > 100 µM (inactive) | > 100 µM (inactive) | > 100 µM (inactive) | 51.9 µM (inactive) | 56 µM (inactive) | > 100 µM (inactive) | > 100 µM (inactive) | > 100 µM (inactive) | > 100 µM (inactive) | 40.5 µM (inactive) | 38.5 µM (inactive) | 67.6 µM (inactive) | 63.2 µM (inactive) | – | 16.8 µM (inactive) | 30.2 µM (inactive) | 38.9 µM (inactive)
6 | CC1=Nc2c(C#N)ncn2N=C(C)C1 | – | > 100 µM (inactive) | 49 µM (inactive) | > 100 µM (inactive) | – | > 100 µM (inactive) | > 100 µM (inactive) | – | > 100 µM (inactive) | – | > 100 µM (inactive) | > 100 µM (inactive) | > 100 µM (inactive) | > 100 µM (inactive) | > 100 µM (inactive) | > 100 µM (inactive) | > 100 µM (inactive) | 70.5 µM (inactive) | > 100 µM (inactive)
7 | O=S(=O)(/N=S(/Nc1ccccc1)C(F)(F)Cl)c1ccccc1 (configuration not stated) | > 100 | > 100 µM (inactive) | > 100 µM (inactive) | – | > 100 µM (inactive) | > 100 µM (inactive) | > 100 µM (inactive) | – | > 100 µM (inactive) | > 100 µM (inactive) | > 100 µM (inactive) | > 100 µM (inactive) | > 100 µM (inactive) | > 100 µM (inactive) | > 100 µM (inactive) | > 100 µM (inactive) | > 100 µM (inactive) | > 100 µM (inactive) | > 100 µM (inactive)
8 | Cc1ccc(/N=C2\SC(=S)N(CCC[N+](C)(C)C)\C2=N/c2ccc(C)cc2)cc1 | 13.8 | 6.01 µM (inactive) | – | – | 8.24 µM (inactive) | 14.8 µM (inactive) | 11.2 µM (inactive) | 15.9 µM (inactive) | 18.5 µM (inactive) | 15.4 µM (inactive) | 13.2 µM (inactive) | 14.1 µM (inactive) | 20.7 µM (inactive) | 11 µM (inactive) | – | 21.7 µM (inactive) | 1.99 µM (inactive) | 19.1 µM (inactive) | –
9 | CC(C)CCCC(C)[C@H]1CC[C@H]2n3c(nnc3-c3ccccc3)CCC[C@]12C (some centres not stated) | 13.8 | 4.13 µM (inactive) | 13.4 µM (inactive) | 14 µM (inactive) | 11.8 µM (inactive) | 17.5 µM (inactive) | 8.91 µM (inactive) | < 0.01 µM (active) | 10.4 µM (inactive) | 15.9 µM (inactive) | – | 14.6 µM (inactive) | 6.21 µM (inactive) | 12.4 µM (inactive) | 12.5 µM (inactive) | 14.8 µM (inactive) | 3.54 µM (inactive) | 3.49 µM (inactive) | 10.5 µM (inactive)
10 | O=C(CC1SC(Nc2ccccc2Cl)=NC1=O)Nc1ccc(Cl)cc1Cl (configuration not stated) | – | 54 µM (inactive) | – | – | > 100 µM (inactive) | > 100 µM (inactive) | > 100 µM (inactive) | > 100 µM (inactive) | > 100 µM (inactive) | > 100 µM (inactive) | > 100 µM (inactive) | > 100 µM (inactive) | > 100 µM (inactive) | 81.1 µM (inactive) | > 100 µM (inactive) | > 100 µM (inactive) | > 100 µM (inactive) | > 100 µM (inactive) | > 100 µM (inactive)
11 | CCC(C)SC1SCC2C(=O)N(C)C3(CC3C)C(=O)OCC(NC(=O)c3nc4ccccc4cc3O)C(=O)NC(C)C(=O)N(C)C1C(=O)N(C)C1(CC1C)C(=O)OCC(NC(=O)c1nc3ccccc3cc1O)C(=O)NC(C)C(=O)N2C (configuration not stated) | 0.00204 | 4.15e-05 µM (active) | 0.000144 µM (active) | 0.01 µM (active) | 4.79e-05 µM (active) | – | 4.99e-05 µM (active) | 0.000103 µM (active) | 0.00275 µM (active) | 9.1e-05 µM (active) | – | 3.4e-05 µM (active) | 4.78e-05 µM (active) | 4.37e-05 µM (active) | – | 4.99e-05 µM (active) | 9.29e-05 µM (active) | 8.73e-05 µM (active) | –
12 | Cc1ccccc1C(=O)Oc1ccc(Oc2ccccc2)cc1 | > 100 | > 100 µM (inactive) | > 100 µM (inactive) | 72.9 µM (inactive) | > 100 µM (inactive) | > 100 µM (inactive) | > 100 µM (inactive) | 86.1 µM (inactive) | 20.3 µM (inactive) | > 100 µM (inactive) | 28.4 µM (inactive) | > 100 µM (inactive) | 73.6 µM (inactive) | > 100 µM (inactive) | > 100 µM (inactive) | > 100 µM (inactive) | 18.2 µM (inactive) | 42.7 µM (inactive) | > 100 µM (inactive)
13 | Cc1ccc(Oc2ccc([N+](=O)[O-])cc2[N+](=O)[O-])c(C)c1 | 35.1 | 26.5 µM (inactive) | > 100 µM (inactive) | 29.8 µM (inactive) | – | 25.6 µM (inactive) | 41.2 µM (inactive) | > 100 µM (inactive) | 40.5 µM (inactive) | 59.2 µM (inactive) | 47.6 µM (inactive) | 71.8 µM (inactive) | 47.1 µM (inactive) | 56.9 µM (inactive) | 32.2 µM (inactive) | 44.9 µM (inactive) | 22.9 µM (inactive) | 30.1 µM (inactive) | 35.2 µM (inactive)
14 | COc1ccc(C2N3CCCCC3[C@@H]3c4[nH]c5ccccc5c4CCN23)c(OC)c1 (some centres not stated) | 28 | 15.8 µM (inactive) | 30.4 µM (inactive) | 52 µM (inactive) | 39.4 µM (inactive) | 15.8 µM (inactive) | 18 µM (inactive) | – | 23.5 µM (inactive) | 33.3 µM (inactive) | 23.6 µM (inactive) | 33.7 µM (inactive) | 33.7 µM (inactive) | 14.6 µM (inactive) | 25.5 µM (inactive) | – | 18.2 µM (inactive) | 26.9 µM (inactive) | 24.6 µM (inactive)
15 | CN(C)CC1CCCCCCCCCCCCC(CN(C)C)C1=O (configuration not stated) | 18.7 | – | 17.7 µM (inactive) | 13.3 µM (inactive) | 17.5 µM (inactive) | 5.66 µM (inactive) | 15.2 µM (inactive) | 10.2 µM (inactive) | 13.7 µM (inactive) | 10.3 µM (inactive) | 16.2 µM (inactive) | 10.1 µM (inactive) | 7.64 µM (inactive) | 12.4 µM (inactive) | 15.7 µM (inactive) | 11 µM (inactive) | – | – | 16.8 µM (inactive)
16 | O=C1C(NCCN2CCOCC2)=C(Cl)C(=O)c2ncccc21 | 0.339 | 0.1 µM (active) | 1.43 µM (inactive) | – | 1.42 µM (inactive) | 0.637 µM (active) | 1.36 µM (inactive) | 0.625 µM (active) | 1.12 µM (active) | 0.377 µM (active) | 1.1 µM (active) | 0.431 µM (active) | 0.105 µM (active) | 0.226 µM (active) | – | 1.69 µM (inactive) | 0.0249 µM (active) | 0.214 µM (active) | 0.392 µM (active)
